In patent publication US20130122098A1, “Method and composition to improve absorption of therapeutic agents” (Bayer HealthCare LLC, priority 2011, published 2013):

What was measured:
[1] = Compatibility: degradation products of aspirin/carbonate blends by HPLC; assay type: physicochemical
Method: The degradation products of various combinations of aspirin and various carbonates were determined for different combinations of aspirin and different grades and sources of carbonates to evaluate the compatibility and stability. Milling for about fifteen minutes appeared to slightly induce the production of free salicylic acid (FSA), but not to a significant extent. […] The results are shown in Table 3 (all blend percentages are weight percentages obtained using High Performance Liquid Chromatography (HPLC))

[2] = Particle size of milled aspirin by laser diffraction (MS 2000 Hydro S); assay type: physicochemical
Method: Several techniques were evaluated to determine the preferred type of milling techniques for use with aspirin in accordance with the invention. All sizes were determined using Laser Diffraction on a model MS 2000 Hydro S machine. The “d50” value is the average particle size of the milled sample, and “d90” represents the average particle size of at least 90% of the particles in the milled sample. Airjet, bead, and ball mill techniques were selected as being the most preferred in the invention because of the reliability of the techniques and the particle sizes obtained. Bead milling is less preferred because of its higher relative cost. The precipitation method and crystal synthesis also yielded small particle sizes but particles prepared using these techniques tended to agglomerate.

[3] = Air Jet Mill using helium as gas jet

| Acetyl Salicylic Salicylic Acid ASSA (%) [1] [%] | FSA (%) (free salicylic acid) [1] | Particle size of the milled aspirin, d90 ([2]; Air Jet Mill) [μm] | Particle size of the milled aspirin, d50 [2, 3] [μm] | Particle size of the milled aspirin, d90 [2, 3] [μm] | Particle size of the milled aspirin, d50 ([2]; Crystal Synthesis, no agglomeration) | Particle size of the milled aspirin, d50 ([2]; High energy Ball Mill) | Particle size of the milled aspirin, d50 ([2]; Planetary Ball Mill) | Particle size of the milled aspirin, d50 ([2]; Precipitation Method (Solution: Ethanol + 20% ASA with 10% PVP)) | SMILES | Particle size of the milled aspirin, d50 ([2]; Crystal Synthesis, with agglomeration of milled particles) |
| --- | --- | --- | --- | --- | --- | --- | --- | --- | --- | --- |
| 0.00 | 0.00 |  |  |  |  |  |  |  | CC(=O)Oc1ccccc1C(=O)O [100% Aspirin-Milled 15 min] |  |
|  |  | < 10 | < 2.6 | < 6.6 | d50~30 μm and no agglomeration | d50~30-40 μm | d50~40 μm | d50~5 μm | CC(=O)Oc1ccccc1C(=O)O [aspirin] | d50~5 to 10 μm, with agglomeration of milled particles |
